pKd: −log10 of the molar value.
Molecular target: T1, Bd1971 (Bdellovibrio bacteriovorus, UniProt Q6MLN6)
T1 construct: ITC: Bd1971ΔEAL (residues 1–150); crystal: full-length
Assay: ITC (two-site model) and co-crystal structure; also activates phosphodiesterase activity (K half […])
Type: binding

T1 sequence (Q6MLN6 entry or part of it): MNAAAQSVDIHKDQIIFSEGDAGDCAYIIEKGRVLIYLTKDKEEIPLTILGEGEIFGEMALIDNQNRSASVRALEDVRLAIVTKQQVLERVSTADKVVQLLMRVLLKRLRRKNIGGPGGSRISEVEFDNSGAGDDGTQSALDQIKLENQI

pKd: 6.11
Compound: Nc1nc2c(ncn2[C@@H]2O[C@@H]3COP(=O)(O)O[C@H]3[C@H]2O)c(=O)[nH]1 [cGMP]

From paper PMC6717892 (The EMBO Journal, 2019)
